Laboratory results reported in PubChem BioAssay AID212 (DTP/NCI, 2004).
Where “and” joins values, the source holds several entries; their conditions need not be identical. Identical values can stand only once. Results filed as inconclusive are left out.

System: BDF1 mice, colon carcinoma 38 sc, T/C %
Assay: NCI In Vivo Anticancer Drug Screen. Data for tumor model Colon Carcinoma 38 (subcutaneous) in B6D2F1 (BDF1) mice
Settings: endpoint: median tumor weight (est.), higher = larger tumour
Outline: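 T/C readout: treated group (T) measurement over vehicle control group (C) measurement. Endpoint is survival or tumor size in mice bearing a transplanted tumor.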

[1] = dose: 12.5 mg/kg/injection, schedule: Q07DX002 (ip), vehicle: Klucel (hydroxypropylcellulose) (HPC)
[2] = dose: 100.0 mg/kg/injection, schedule: Q07DX002 (ip), vehicle: Klucel (hydroxypropylcellulose) (HPC)
[3] = dose: 200.0 mg/kg/injection, schedule: Q07DX002 (ip), vehicle: Klucel (hydroxypropylcellulose) (HPC)
[4] = dose: 25.0 mg/kg/injection, schedule: Q07DX002 (ip), vehicle: Klucel (hydroxypropylcellulose) (HPC)
[5] = dose: 50.0 mg/kg/injection, schedule: Q07DX002 (ip), vehicle: Klucel (hydroxypropylcellulose) (HPC)
[6] = dose: 400.0 mg/kg/injection, schedule: Q07DX002 (ip), vehicle: Klucel (hydroxypropylcellulose) (HPC)
[7] = dose: 50.0 mg/kg/injection, schedule: Q07DX002 (ip), vehicle: saline with Tween-80
[8] = dose: 100.0 mg/kg/injection, schedule: Q07DX002 (ip), vehicle: saline with Tween-80
[9] = dose: 200.0 mg/kg/injection, schedule: Q07DX002 (ip), vehicle: saline with Tween-80
[10] = dose: 400.0 mg/kg/injection, schedule: Q07DX002 (ip), vehicle: saline with Tween-80
[11] = dose: 200.0 mg/kg/injection, schedule: Q07DX002 (ip), vehicle: saline
[12] = dose: 400.0 mg/kg/injection, schedule: Q07DX002 (ip), vehicle: saline
[13] = dose: 12.5 mg/kg/injection, schedule: Q07DX002 (ip), vehicle: saline
[14] = dose: 25.0 mg/kg/injection, schedule: Q07DX002 (ip), vehicle: saline
[15] = dose: 100.0 mg/kg/injection, schedule: Q07DX002 (ip), vehicle: saline
[16] = dose: 50.0 mg/kg/injection, schedule: Q07DX002 (ip), vehicle: saline
[17] = dose: 12.5 mg/kg/injection, schedule: Q07DX002 (ip), vehicle: saline with Tween-80

**Q.** `O=C(Nc1ccc(Cl)c(Cl)c1)Nc1c(Oc2ccc(Cl)c(Cl)c2)ccc(Cl)c1S(=O)(=O)O` was tested. Which T/C (dose: 6.25 mg/kg/injection, schedule: Q07DX002 (ip), vehicle: Klucel (hydroxypropylcellulose) (HPC)) did it give?
**A.** 167 % of control

**Q.** What about the T/C [1] of the same compound?
**A.** 103 % of control

**Q.** And the T/C [2]?
**A.** 119 % of control

**Q.** And the T/C [3]?
**A.** 66 % of control

**Q.** What does the source list for `[N-]=[N+]=CC(=O)CCC(=O)C=[N+]=[N-]`?
**A.** T/C (dose: 50.0 mg/kg/injection, schedule: Q07DX003 (ip), vehicle: Klucel (hydroxypropylcellulose) (HPC)): 39 % of control; T/C (dose: 100.0 mg/kg/injection, schedule: Q07DX003 (ip), vehicle: Klucel (hydroxypropylcellulose) (HPC)): 45 % of control; T/C (dose: 200.0 mg/kg/injection, schedule: Q07DX003 (ip), vehicle: Klucel (hydroxypropylcellulose) (HPC)): 50 % of control; T/C (dose: 400.0 mg/kg/injection, schedule: Q07DX003 (ip), vehicle: Klucel (hydroxypropylcellulose) (HPC)): 19 % of control

**Q.** Which results are given for `ClC1C(Cl)C(Cl)C(Cl)C(Cl)C1Cl` (centres undefined)?
**A.** T/C [4]: 103 % of control; T/C [5]: 88 % of control; T/C (dose: 56.0 mg/kg/injection, schedule: Q07DX002 (ip), vehicle: saline with Tween-80): 109 % of control and 95 % of control; T/C [2]: 71 % of control; T/C (dose: 112.0 mg/kg/injection, schedule: Q07DX002 (ip), vehicle: saline with Tween-80): 69 % of control and 82 % of control; T/C [3]: 113 % of control; T/C [6]: 118 % of control; T/C (dose: 450.0 mg/kg/injection, schedule: Q07DX002 (ip), vehicle: saline with Tween-80): 80 % of control and 85 % of control

**Q.** Which results are given for `COc1c(CNC(=O)CCl)cc2[nH]c(C)cc2c1CNC(=O)CCl`?
**A.** T/C [1]: 101 % of control; T/C [5]: 98 % of control; T/C [2]: 93 % of control; T/C [3]: 83 % of control; T/C [6]: 111 % of control

**Q.** Which results are given for `NC(=O)C#CC(N)=O`?
**A.** T/C (dose: 0.12 mg/kg/injection, schedule: Q07DX002 (ip), vehicle: Klucel (hydroxypropylcellulose) (HPC)): 88 % of control; T/C (dose: 0.23 mg/kg/injection, schedule: Q07DX002 (ip), vehicle: Klucel (hydroxypropylcellulose) (HPC)): 97 % of control; T/C (dose: 0.45 mg/kg/injection, schedule: Q07DX002 (ip), vehicle: Klucel (hydroxypropylcellulose) (HPC)): 85 % of control; T/C (dose: 0.9 mg/kg/injection, schedule: Q07DX002 (ip), vehicle: Klucel (hydroxypropylcellulose) (HPC)): 91 % of control

**Q.** Which T/C (dose: 25.0 mg/kg/injection, schedule: Q07DX002 (ip), vehicle: saline with Tween-80) does the source give for `COC(=Nc1ccccc1)SSC(C)C` here?
**A.** 99 % of control

**Q.** What about the T/C [7] of the same compound?
**A.** 84 % of control

**Q.** And the T/C [8]?
**A.** 88 % of control

**Q.** What about the T/C [9] of the same compound?
**A.** 100 % of control

**Q.** And the T/C [10]?
**A.** 96 % of control

**Q.** How did the T/C [1] turn out when `C=CCNc1ccc(C)cc1` was run?
**A.** 72 % of control

**Q.** What about the T/C [4] of the same compound?
**A.** 92 % of control

**Q.** What about the T/C [5] of the same compound?
**A.** 66 % of control

**Q.** And the T/C [2]?
**A.** 86 % of control

**Q.** What about the T/C [3] of the same compound?
**A.** 78 % of control

**Q.** Which results are given for `CNC=O`?
**A.** T/C [11]: 110 % of control; T/C [12]: 150 % of control; T/C (dose: 800.0 mg/kg/injection, schedule: Q07DX002 (ip), vehicle: saline): 55 % of control; T/C (dose: 1600.0 mg/kg/injection, schedule: Q07DX002 (ip), vehicle: saline): 75 % of control

**Q.** For `O=CC(S)CO` (centres undefined), which T/C (dose: 12.5 mg/kg/injection, schedule: Q07DX002 (ip), vehicle: suspension in saline) is on record?
**A.** 76 % of control

**Q.** What about the T/C (dose: 25.0 mg/kg/injection, schedule: Q07DX002 (ip), vehicle: suspension in saline) of the same compound?
**A.** 95 % of control

**Q.** What about the T/C (dose: 50.0 mg/kg/injection, schedule: Q07DX002 (ip), vehicle: suspension in saline) of the same compound?
**A.** 113 % of control

**Q.** And the T/C (dose: 200.0 mg/kg/injection, schedule: Q07DX002 (ip), vehicle: suspension in saline)?
**A.** 97 % of control

**Q.** `NC(=O)c1ccc[n+](Cc2c(Cl)cccc2Cl)c1` was tested. Which T/C (dose: 3.12 mg/kg/injection, schedule: Q07DX002 (ip), vehicle: saline) did it give?
**A.** 83 % of control and 94 % of control

**Q.** What about the T/C (dose: 6.25 mg/kg/injection, schedule: Q07DX002 (ip), vehicle: saline) of the same compound?
**A.** 68 % of control

**Q.** What about the T/C [13] of the same compound?
**A.** 97 % of control

**Q.** And the T/C [14]?
**A.** 116 % of control and 94 % of control

**Q.** What about the T/C [15] of the same compound?
**A.** 85 % of control and 90 % of control

**Q.** What does the source list for `COC(=O)C(Cl)(Cl)N=Nc1c(Cl)cc(Cl)c(C)c1Cl`?
**A.** T/C [13]: 118 % of control; T/C [14]: 123 % of control; T/C [16]: 123 % of control; T/C [11]: 101 % of control

**Q.** How did the T/C [17] turn out when `COC1(OC)C2C=CC1CC2` was run?
**A.** 73 % of control

**Q.** What about the T/C [7] of the same compound?
**A.** 105 % of control and 107 % of control

**Q.** And the T/C [9]?
**A.** 80 % of control and 94 % of control

**Q.** And the T/C [10]?
**A.** 113 % of control and 105 % of control

**Q.** With `CC(=O)Oc1ccccc1O` as the compound, how does the T/C (dose: 50.0 mg/kg/injection, schedule: Q07DX002 (ip), vehicle: saline + Tween-80 + alcohol) read?
**A.** 158 % of control

**Q.** How did the T/C (dose: 2.5 mg/kg/injection, schedule: Q07DX002 (ip), vehicle: saline) turn out when `CCCCCC(O)C1C(=O)OC(C)C(O)/C=C/C=C/C=C/C=C\C=C(\C)C(O)CC(O)CC(O)CC(O)CC(O)CC(O)CC1O` (centres undefined) was run?
**A.** 105 % of control

**Q.** What about the T/C (dose: 5.0 mg/kg/injection, schedule: Q07DX002 (ip), vehicle: saline) of the same compound?
**A.** 64 % of control

**Q.** What about the T/C (dose: 20.0 mg/kg/injection, schedule: Q07DX002 (ip), vehicle: saline) of the same compound?
**A.** 71 % of control

**Q.** Which results are given for `Nc1cc2[nH]cnc2c(=O)[nH]1`?
**A.** T/C [13]: 66 % of control; T/C [14]: 168 % of control; T/C [15]: 113 % of control; T/C [11]: 99 % of control; T/C [12]: 117 % of control

**Q.** How did the T/C [1] turn out when `O=C(O)CSc1nc(-c2ccccc2)c(-c2ccccc2)n1-c1ccccn1` was run?
**A.** 92 % of control

**Q.** And the T/C [4]?
**A.** 83 % of control

**Q.** What about the T/C (dose: 25.0 mg/kg/injection, schedule: Q07DX002 (ip), vehicle: water) of the same compound?
**A.** 114 % of control

**Q.** And the T/C [5]?
**A.** 72 % of control

**Q.** What about the T/C (dose: 50.0 mg/kg/injection, schedule: Q07DX002 (ip), vehicle: water) of the same compound?
**A.** 112 % of control

**Q.** And the T/C [2]?
**A.** 106 % of control

**Q.** And the T/C (dose: 100.0 mg/kg/injection, schedule: Q07DX002 (ip), vehicle: water)?
**A.** 95 % of control

**Q.** What about the T/C [3] of the same compound?
**A.** 73 % of control

**Q.** And the T/C (dose: 200.0 mg/kg/injection, schedule: Q07DX002 (ip), vehicle: water)?
**A.** 89 % of control

**Q.** What does the source list for `O=CC=O`?
**A.** T/C [7]: 72 % of control and 86 % of control; T/C [8]: 75 % of control and 77 % of control; T/C [10]: 80 % of control and 95 % of control

**Q.** For `O=C1CCC(=O)N1CO`, which T/C [16] is on record?
**A.** 112 % of control and 98 % of control

**Q.** What about the T/C [15] of the same compound?
**A.** 99 % of control and 100 % of control

**Q.** And the T/C [11]?
**A.** 76 % of control and 91 % of control

**Q.** And the T/C [12]?
**A.** 36 % of control and 58 % of control

**Q.** For `Cc1ccc(C2NC(=S)N3C(c4ccc(C)cc4)NC(=S)N23)cc1` (centres undefined), which T/C [4] is on record?
**A.** 94 % of control

**Q.** And the T/C [5]?
**A.** 79 % of control

**Q.** And the T/C [2]?
**A.** 83 % of control

**Q.** What about the T/C [3] of the same compound?
**A.** 88 % of control

**Q.** And the T/C [6]?
**A.** 89 % of control

**Q.** And the T/C (dose: 800.0 mg/kg/injection, schedule: Q07DX002 (ip), vehicle: Klucel (hydroxypropylcellulose) (HPC))?
**A.** 60 % of control

**Q.** How did the T/C [17] turn out when `C=C1C(=O)OCC1(C(=O)OCC)C(=O)OCC` was run?
**A.** 42 % of control and 62 % of control and 66 % of control

**Q.** And the T/C [7]?
**A.** 88 % of control

**Q.** Which results are given for `Cc1cc2c(C(C)C)c(O)c(O)c(C=O)c2c(O)c1-c1c(C)cc2c(C(C)C)c(O)c(O)c(C=O)c2c1O`?
**A.** T/C (dose: 1.5 mg/kg/injection, schedule: Q07DX002 (ip), vehicle: saline with Tween-80): 117 % of control; T/C (dose: 3.0 mg/kg/injection, schedule: Q07DX002 (ip), vehicle: saline with Tween-80): 97 % of control; T/C (dose: 6.0 mg/kg/injection, schedule: Q07DX002 (ip), vehicle: saline with Tween-80): 107 % of control; T/C (dose: 12.0 mg/kg/injection, schedule: Q07DX002 (ip), vehicle: saline with Tween-80): 53 % of control; T/C (dose: 24.0 mg/kg/injection, schedule: Q07DX002 (ip), vehicle: saline with Tween-80): 96 % of control
